Reference: US20070036874A1, “Compositions and methods for controlling glucose and lipid uptake from foods” (priority 2005, published 2007)

Experiments:
[1] = tested on: sodium dependent glucose transporter; details: in vitro study; cited from earlier work
human pancreatic lipase = molecular target: T1, human pancreatic lipase (Homo sapiens, UniProt P16233); assay: lipase inhibition activity (USP units per mg); assay type: biochemical
T1 sequence (P16233 17-465): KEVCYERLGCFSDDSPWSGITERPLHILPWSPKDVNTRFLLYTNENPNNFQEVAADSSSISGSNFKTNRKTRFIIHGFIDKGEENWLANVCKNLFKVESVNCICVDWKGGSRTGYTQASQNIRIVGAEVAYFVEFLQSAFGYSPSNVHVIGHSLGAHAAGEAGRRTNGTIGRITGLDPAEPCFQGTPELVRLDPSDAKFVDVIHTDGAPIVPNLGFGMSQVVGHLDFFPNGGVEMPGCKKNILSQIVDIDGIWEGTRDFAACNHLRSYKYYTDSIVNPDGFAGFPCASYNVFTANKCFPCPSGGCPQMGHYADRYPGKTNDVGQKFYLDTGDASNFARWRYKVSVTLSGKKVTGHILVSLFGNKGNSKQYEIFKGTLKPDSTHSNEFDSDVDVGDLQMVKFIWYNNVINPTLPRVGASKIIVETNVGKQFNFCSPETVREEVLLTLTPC
Description: Polymerized catechins are prepared from fermented catechins. Tea catechins are incubated with polyphenol oxidase in a reaction tank for 60 to 120 minutes. The mixture is then extracted with ethyl acetate and dried. In particular embodiments, the extracts have at least 10 USP units human pancreatic lipase inhibition per mg.
LIPOTAME™, an exemplary polymerized catechin commercially available from NatureGen, has 11.62 USP units/mg of lipase inhibition activity, compared to 80 USP units/mg of lipase inhibition activity found in ORLISTAT®.

SMILES: O=C(O[C@@H]1Cc2c(O)cc(O)cc2O[C@@H]1c1ccc(O)c(O)c1)c1cc(O)c(O)c(O)c1 [Epicatechin gallate]
- inhibition of the glucose uptake through incubated intestinal membranes [1]: up to 50%

SMILES: CCCCCCCCCCC[C@@H](C[C@@H]1OC(=O)[C@H]1CCCCCC)OC(=O)[C@H](CC(C)C)NC=O [ORLISTAT®, Orlistat]
- lipase inhibition activity (human pancreatic lipase): 80 USP units/mg
